{
  "source": "paper PMC11672294",
  "about": "“The Antipsychotic Drug Aripiprazole Suppresses Colorectal Cancer by Targeting LAMP2a to Induce RNH1/miR‐99a/mTOR‐Mediated Autophagy and Apoptosis” (Advanced Science, 2024)",
  "note": "Counter-ions that a name gives are not always drawn.",
  "data": [
    {"tested_on": "HT29", "settings": "72 h, relative to DMSO; 10 µM", "outline": "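HT29 viability used WST-1 reduction (2 h, 37 °C, A450) after 72 h of treatment; screening compounds were tested singly at 10 µM, with dimethyl sulfoxide as the comparison.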", "units": {"Relative cell viability (%)": "%"}, "values": [
      {"smiles": "Cc1cn([C@H]2O[C@@H](CO)[C@H](O)[C@H]2F)c(=O)[nH]c1=O", "note": "[Clevudine]", "Relative cell viability (%)": 97.09},
      {"smiles": "CN1CCC(=C2c3ccccc3CC(=O)c3sccc32)CC1", "note": "[Ketotifen Fumarate]", "Relative cell viability (%)": 182.5},
      {"smiles": "C[C@@H](O)[C@H]1C(=O)N2C(C(=O)O)=C(S[C@@H]3CN[C@H](CNS(N)(=O)=O)C3)[C@H](C)[C@H]12", "note": "[Doripenem Hydrate]", "Relative cell viability (%)": 88.32},
      {"smiles": "CCOC(=O)C1=C(C)NC(C)=C(C(=O)OCC)C1c1ccccc1/C=C/C(=O)OC(C)(C)C", "note": "[Lacidipine]", "Relative cell viability (%)": 79.32},
      {"smiles": "Nc1ncnc2c1ncn2[C@@H]1O[C@H](CO)[C@@H](O)[C@@H]1O", "note": "[Vidarabine]", "Relative cell viability (%)": 74.15},
      {"smiles": "CC(=O)Nc1cccc(-n2c(=O)n(C3CC3)c(=O)c3c(Nc4ccc(I)cc4F)n(C)c(=O)c(C)c32)c1", "note": "[Trametinib (GSK1120212)]", "Relative cell viability (%)": 35.92},
      {"smiles": "CO[C@H]1/C=C/O[C@@]2(C)Oc3c(C)c(O)c4c(O)c(c5c(nc6cc(C)ccn65)c4c3C2=O)NC(=O)/C(C)=C\\C=C\\[C@H](C)[C@H](O)[C@@H](C)[C@@H](O)[C@@H](C)[C@H](OC(C)=O)[C@@H]1C", "note": "[Rifaximin]", "Relative cell viability (%)": 94.49},
      {"smiles": "Cc1noc(NS(=O)(=O)c2ccc(N)cc2)c1C", "note": "[Sulfisoxazole]", "Relative cell viability (%)": 134.3},
      {"smiles": "Sc1ncnc2nc[nH]c12", "note": "[Mercaptopurine (6-MP)]", "Relative cell viability (%)": 52.49},
      {"smiles": "CC(=O)N1CCN(c2ccc(OC[C@@H]3CO[C@@](Cn4ccnc4)(c4ccc(Cl)cc4Cl)O3)cc2)CC1", "note": "(racemic) [Ketoconazole]", "Relative cell viability (%)": 43.15},
      {"smiles": "CC(=O)O[C@]1(C(C)=O)CC[C@H]2[C@@H]3C[C@H](C)C4=CC(=O)C=C[C@]4(C)[C@@]3(F)[C@@H](O)C[C@@]21C", "note": "[Fluorometholone Acetate]", "Relative cell viability (%)": 86.67},
      {"smiles": "CCn1cc(C(=O)O)c(=O)c2ccc(C)nc21", "note": "[Nalidixic acid]", "Relative cell viability (%)": 106.7},
      {"smiles": "CC(=O)OCC(=O)[C@@]12OC(C)(C)O[C@@H]1C[C@H]1[C@@H]3C[C@H](F)C4=CC(=O)C=C[C@]4(C)[C@@]3(F)[C@@H](O)C[C@@]12C", "note": "[Fluocinonide]", "Relative cell viability (%)": 56.31},
      {"smiles": "CCCc1nc2c(C)cc(-c3nc4ccccc4n3C)cc2n1Cc1ccc(-c2ccccc2C(=O)O)cc1", "note": "[Telmisartan]", "Relative cell viability (%)": 47.46},
      {"smiles": "NC(N)=Nc1nc(CSCCC(N)=NS(N)(=O)=O)cs1", "note": "[Famotidine]", "Relative cell viability (%)": 119.6},
      {"smiles": "CN(C)CCOC(C)(c1ccccc1)c1ccccn1", "note": "(centres unmarked) [Doxylamine Succinate]", "Relative cell viability (%)": 83.94},
      {"smiles": "CCc1cnn2c(NCc3ccc[n+]([O-])c3)cc(N3CCCC[C@H]3CCO)nc12", "note": "[Dinaciclib (SCH727965)]", "Relative cell viability (%)": 33.01},
      {"smiles": "N[C@@H](Cc1cc(I)c(Oc2ccc(O)c(I)c2)c(I)c1)C(=O)O", "note": "[Liothyronine Sodium]", "Relative cell viability (%)": 85.76},
      {"smiles": "Nc1ccc(/N=N/c2ccccc2)c(N)n1", "note": "[Phenazopyridine HCl]", "Relative cell viability (%)": 73.94},
      {"smiles": "CCOC(=O)[C@H](CCc1ccccc1)N[C@H]1CCc2ccccc2N(CC(=O)O)C1=O", "note": "[Benazepril HCl]", "Relative cell viability (%)": 72.74},
      {"smiles": "CN(N=O)C(=O)N[C@@H](C=O)[C@@H](O)[C@H](O)[C@H](O)CO", "note": "[Streptozotocin (STZ)]", "Relative cell viability (%)": 74.3},
      {"smiles": "CN1C2=CC(=O)/C(=N\\NC(N)=O)C=C2CC1S(=O)(=O)O", "note": "(centres unmarked) [Carbazochrome sodium sulfonate (AC-17)]", "Relative cell viability (%)": 50.49},
      {"smiles": "C[C@]12CCC(=O)C(O)=C1CC[C@@H]1[C@@H]2CC[C@]2(C)C(=O)CC[C@@H]12", "note": "[Formestane]", "Relative cell viability (%)": 110.8},
      {"smiles": "CCNC1(C(N)=O)CCN(c2ncnc3c2nc(-c2ccccc2Cl)n3-c2ccc(Cl)cc2)CC1", "note": "[Otenabant (CP-945598) HCl]", "Relative cell viability (%)": 70.09},
      {"smiles": "Nc1nc(N)nc(NC2CC2)n1", "note": "[Cyromazine]", "Relative cell viability (%)": 68.48},
      {"smiles": "C[C@@H]1[C@H](O)[C@@H](C)/C=C/C=C/CC/C=C/C=C/C=C/C=C/[C@H](O[C@H]2O[C@@H](C)[C@H](O)[C@@H](N)[C@H]2O)C[C@@H]2O[C@](O)(C[C@@H](O)[C@H](O)CC[C@@H](O)C[C@@H](O)C[C@@H](O)CC(=O)O[C@H]1C)C[C@H](O)[C@H]2C(=O)O", "note": "[Nystatin (Fungicidin)]", "Relative cell viability (%)": 170.8}
    ]}
  ]
}
